# Source: PubChem BioAssay AID272 (DTP/NCI, 2004)
# Records with an inconclusive call do not appear.
# Test system: Lewis lung carcinoma i.m., BDF1 mice, T/C %
# Assay: NCI In Vivo Anticancer Drug Screen. Data for tumor model Lewis Lung Carcinoma (intramuscular) in B6D2F1 (BDF1) mice
# Outline: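 Tumour-bearing mice were dosed with compound, and either their survival or their tumour size was measured. Results were expressed relative to vehicle-treated controls as T/C.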
# [1] = endpoint: mean tumor weight, dose: 25.0 mg/kg/injection, schedule: Q01DX011 (ip), vehicle: saline, higher = larger tumour
# [2] = endpoint: mean tumor weight, dose: 50.0 mg/kg/injection, schedule: Q01DX011 (ip), vehicle: saline, higher = larger tumour
# [3] = endpoint: mean tumor weight, dose: 100.0 mg/kg/injection, schedule: Q01DX011 (ip), vehicle: saline, higher = larger tumour
# [4] = endpoint: mean tumor weight, dose: 200.0 mg/kg/injection, schedule: Q01DX011 (ip), vehicle: saline, higher = larger tumour
# [5] = endpoint: median survival time, dose: 25.0 mg/kg/injection, schedule: Q01DX011 (ip), vehicle: saline, higher = longer survival
# [6] = endpoint: median survival time, dose: 50.0 mg/kg/injection, schedule: Q01DX011 (ip), vehicle: saline, higher = longer survival
# [7] = endpoint: median survival time, dose: 100.0 mg/kg/injection, schedule: Q01DX011 (ip), vehicle: saline, higher = longer survival
structure (smiles),measurement,setting,value
Nc1n[nH]c(N)n1,T/C,"endpoint: mean tumor weight, dose: 125.0 mg/kg/injection, schedule: Q03HX024 (ip), vehicle: water, higher = larger tumour",89 % of control
same,T/C,"endpoint: mean tumor weight, dose: 250.0 mg/kg/injection, schedule: Q03HX024 (ip), vehicle: water, higher = larger tumour",81 % of control
same,T/C,"endpoint: mean tumor weight, dose: 750.0 mg/kg/injection, schedule: Q01DX009 (ip), vehicle: water, higher = larger tumour",72 % of control
same,T/C,"endpoint: mean tumor weight, dose: 750.0 mg/kg/injection, schedule: Q01DX011 (ip), vehicle: water, higher = larger tumour",68 % of control
same,T/C,"endpoint: median survival time, dose: 375.0 mg/kg/injection, schedule: Q01DX009 (ip), vehicle: water, higher = longer survival",116 % of control
same,T/C,"endpoint: median survival time, dose: 375.0 mg/kg/injection, schedule: Q01DX011 (ip), vehicle: water, higher = longer survival",110 % of control
same,T/C,"endpoint: median survival time, dose: 750.0 mg/kg/injection, schedule: Q01DX009 (ip), vehicle: water, higher = longer survival",124 % of control
same,T/C,"endpoint: median survival time, dose: 750.0 mg/kg/injection, schedule: Q01DX011 (ip), vehicle: water, higher = longer survival",104 % of control
same,T/C,"endpoint: median survival time, dose: 1500.0 mg/kg/injection, schedule: Q01DX011 (ip), vehicle: water, higher = longer survival",124 % of control
Cc1cc2nc(CBr)c(CBr)nc2cc1C,T/C,"endpoint: mean tumor weight (est.), dose: 0.75 mg/kg/injection, schedule: Q01DX011 (ip), vehicle: saline with Tween-80, higher = larger tumour",87 % of control
same,T/C,"endpoint: mean tumor weight (est.), dose: 1.5 mg/kg/injection, schedule: Q01DX011 (ip), vehicle: saline with Tween-80, higher = larger tumour",76 % of control
same,T/C,"endpoint: mean tumor weight (est.), dose: 3.0 mg/kg/injection, schedule: Q01DX011 (ip), vehicle: saline with Tween-80, higher = larger tumour",67 % of control
same,T/C,"endpoint: mean tumor weight (est.), dose: 6.0 mg/kg/injection, schedule: Q01DX011 (ip), vehicle: saline with Tween-80, higher = larger tumour",48 % of control
same,T/C,"endpoint: median survival time, dose: 0.75 mg/kg/injection, schedule: Q01DX011 (ip), vehicle: saline with Tween-80, higher = longer survival",100 % of control
same,T/C,"endpoint: median survival time, dose: 1.5 mg/kg/injection, schedule: Q01DX011 (ip), vehicle: saline with Tween-80, higher = longer survival",101 % of control
same,T/C,"endpoint: median survival time, dose: 3.0 mg/kg/injection, schedule: Q01DX011 (ip), vehicle: saline with Tween-80, higher = longer survival",86 % of control
same,T/C,"endpoint: median survival time, dose: 6.0 mg/kg/injection, schedule: Q01DX011 (ip), vehicle: saline with Tween-80, higher = longer survival",107 % of control
Cc1c(N)nc(C(CC(N)=O)NCC(N)C(N)=O)nc1C(=O)NC(C(=O)NC(C)C(O)C(C)C(=O)NC(C(=O)NCCc1nc(-c2nc(C(=O)NCCC[S+](C)C)cs2)cs1)C(C)O)C(OC1OC(CO)C(O)C(O)C1OC1OC(CO)C(O)C(OC(N)=O)C1O)c1cnc[nH]1 (configuration not stated),T/C,"endpoint: median survival time, dose: 6.5 mg/kg/injection, schedule: Q01DX011 (ip), vehicle: saline, higher = longer survival",152 % of control
same,T/C,"endpoint: median survival time, dose: 10.8 mg/kg/injection, schedule: Q01DX011 (ip), vehicle: saline, higher = longer survival",168 % of control
same,T/C,"endpoint: median survival time, dose: 18.0 mg/kg/injection, schedule: Q01DX011 (ip), vehicle: saline, higher = longer survival",166 % of control
N#CSCc1ccc(Cl)cc1Cl,T/C,[1],75 % of control
same,T/C,[2],56 % of control
same,T/C,[3],25 % of control
same,T/C,[4],47 % of control
same,T/C,[5],86 % of control
same,T/C,[6],95 % of control
same,T/C,[7],119 % of control
same,T/C,"endpoint: median survival time, dose: 200.0 mg/kg/injection, schedule: Q01DX011 (ip), vehicle: saline, higher = longer survival",106 % of control
O=NN(CCCl)C(=O)Nc1ccc(CCCl)cc1,T/C,"endpoint: median survival time, dose: 3.0 mg/kg/injection, schedule: Q07DX003 (ip), vehicle: Klucel (hydroxypropylcellulose) (HPC), higher = longer survival",110 % of control
same,T/C,"endpoint: median survival time, dose: 5.0 mg/kg/injection, schedule: Q07DX003 (ip), vehicle: Klucel (hydroxypropylcellulose) (HPC), higher = longer survival",116 % of control
same,T/C,"endpoint: median survival time, dose: 8.4 mg/kg/injection, schedule: Q07DX003 (ip), vehicle: Klucel (hydroxypropylcellulose) (HPC), higher = longer survival",108 % of control
same,T/C,"endpoint: median survival time, dose: 14.0 mg/kg/injection, schedule: Q07DX003 (ip), vehicle: Klucel (hydroxypropylcellulose) (HPC), higher = longer survival",116 % of control
same,T/C,"endpoint: median survival time, dose: 23.0 mg/kg/injection, schedule: Q07DX003 (ip), vehicle: Klucel (hydroxypropylcellulose) (HPC), higher = longer survival",95 % of control
CCCC(=O)Nc1ncnc2c1ncn2C1OC2COP(=O)(O)OC2C1OC(=O)CCC (configuration not stated),T/C,[1],107 % of control
same,T/C,[2],106 % of control
same,T/C,[3],114 % of control
same,T/C,[4],96 % of control
same,T/C,"endpoint: mean tumor weight, dose: 400.0 mg/kg/injection, schedule: Q01DX011 (ip), vehicle: saline, higher = larger tumour",90 % of control
same,T/C,[5],118 % of control
same,T/C,[6],118 % of control
same,T/C,[7],100 % of control
same,T/C,"endpoint: median survival time, dose: 400.0 mg/kg/injection, schedule: Q01DX011 (ip), vehicle: saline, higher = longer survival",104 % of control
